Data taken from patent publication US20060122153A1, “Antineoplastic ether lipid compounds with modifications at the sn-2 carbon” (priority 2003, published 2006).
Several values for one entry are separate records, joined by “and”; a condition that tells them apart may be missing. Identical values can stand only once.

Experiments:
[1] = system: washed human red blood cells; assay: Hemolysis assay with washed human red blood cells; format: cell-based; settings: washed human RBCs; for H10: concentration producing 10% hemolysis; for H50: concentration producing 50% hemolysis
Experimental: The blood was transferred from 1 EDTA tube to a 50 mL conical tissue culture tube and the volume was brought up to 50 mL with PBS.
The blood was centrifuged for 10 minutes at 1500 RPM. The supernatant was removed and the blood was resuspended up to 50 mL with PBS. Next the blood was centrifuged for 10 minutes at 1500 RPM.
The supernatant was removed, and 2.0 mL of packed red blood cells was carefully transferred, using positive displacement pipet, into a fresh conical tissue culture tube. Next, 48 mL PBS was added to achieve a 4% washed RBC solution.
Next, 25, 50, 100 and 200 uM stock solutions of test sample in phosphate buffered saline (PBS) as follows:
Next, 0.5 mL of 4% washed RBC was added to 0.5 mL test sample dilutions (in duplicate). The final concentration of test sample was 50% of working stock solution.
The samples were capped or sealed with Parafilm and the samples were gently mixed. […] The samples were centrifuged for 10 minutes at 1500 RPM. […] Absorbance was measured at 550 nm vs. a water blank. Next, H10 and H50 were determined by graphing Absorbance vs. Test Sample Concentration.

[2] = system: UO-31; assay: NCI growth inhibition screen, renal panel; format: cell-based, human; set-up: key to Performance as compared to ET-18-O—CH3: = means equivalent activity; + means that it appears to be significantly better (i.e., by ˜2x); < means it appears to be less active than ET18OCH3 (˜2x); a combination like =/+ or </+ means that activity is dependent upon the isomer; a combination like =/+ or </+ means that activity is dependent upon the isomer; settings: for Performance as compared to ET-18-O—CH3: UO-31, Renal, from GI50s; for activity compared to ET-18-OCH3 (in words): UO-31 cell line, NCI screen
Experimental: (§1) Candidates deemed suitable for in vivo testing were then synthesized in large scale quantities and some of this material was sent to the NCI's Developmental Therapeutics Program for a battery of growth inhibitory studies against various human tumor cell lines (60 cell lines, 9 different panels). The remainder of the material was used to assess in vivo efficacy using murine tumor models. Additionally, studies were conducted on the lead candidates to discern mechanism of action with particular emphasis on these agents apoptotic ability as measured by caspase 3 activity. The details (materials and methods) for these various assays are described further in the following discussion.
(§2) Ten compounds were also sent to NCI's Drug Discovery Program for screening against numerous human tumor cell lines (9 panels total: renal ovarian, colon, CNS, non-small cell lung, leukemia, breast, melanoma, and prostate). The data are shown in FIGS. 2a-i which also include data regarding D- and L-ET-18-OCH3 (listed as L-EL and D-EL in the figures). Upon examining the data, one is struck by how 1R and 1a′S standout in comparison to the other compounds, especially for the renal, ovarian, colon, and CNS panels.

[3] = system: HCT-116; assay: NCI growth inhibition screen, colon panel; format: cell-based, human; set-up: key: = means equivalent activity; + means that it appears to be significantly better (i.e., by ˜2x); < means it appears to be less active than ET18OCH3 (˜2x); a combination like =/+ or </+ means that activity is dependent upon the isomer; a combination like =/+ or </+ means that activity is dependent upon the isomer; settings: HCT-116, Colon; from GI50s
Experimental: as §1, §2

[4] = system: KM12; assay: NCI growth inhibition screen, colon panel; format: cell-based, human; set-up: key: = means equivalent activity; + means that it appears to be significantly better (i.e., by ˜2x); < means it appears to be less active than ET18OCH3 (˜2x); a combination like =/+ or </+ means that activity is dependent upon the isomer; a combination like =/+ or </+ means that activity is dependent upon the isomer; settings: from GI50s
Experimental: as §1, §2

[5] = system: SW-620; assay: NCI growth inhibition screen, colon panel; format: cell-based, human; set-up: key: = means equivalent activity; + means that it appears to be significantly better (i.e., by ˜2x); < means it appears to be less active than ET18OCH3 (˜2x); a combination like =/+ or </+ means that activity is dependent upon the isomer; a combination like =/+ or </+ means that activity is dependent upon the isomer; settings: SW-620, Colon; from GI50s
Experimental: as §1, §2

[6] = system: OVCAR-3; assay: NCI growth inhibition screen, ovarian panel; format: cell-based, human; set-up: key: = means equivalent activity; + means that it appears to be significantly better (i.e., by ˜2x); < means it appears to be less active than ET18OCH3 (˜2x); a combination like =/+ or </+ means that activity is dependent upon the isomer; a combination like =/+ or </+ means that activity is dependent upon the isomer; settings: OVCAR-3, Ovarian; from GI50s
Experimental: as §1, §2

[7] = system: NCI-H226; assay: NCI growth inhibition screen, non-small cell lung panel; format: cell-based, human; set-up: key to Performance as compared to ET-18-O—CH3: = means equivalent activity; + means that it appears to be significantly better (i.e., by ˜2x); < means it appears to be less active than ET18OCH3 (˜2x); a combination like =/+ or </+ means that activity is dependent upon the isomer; a combination like =/+ or </+ means that activity is dependent upon the isomer; settings: for Performance as compared to ET-18-O—CH3: NCI-H226, NS cell lung, from GI50s; for activity compared to ET-18-OCH3 (in words): NCI-H226 cell line, NCI screen
Experimental: as §1, §2

[8] = system: CCRF-CEM; assay: NCI growth inhibition screen, leukemia panel; format: cell-based, human; set-up: key: = means equivalent activity; + means that it appears to be significantly better (i.e., by ˜2x); < means it appears to be less active than ET18OCH3 (˜2x); a combination like =/+ or </+ means that activity is dependent upon the isomer; a combination like =/+ or </+ means that activity is dependent upon the isomer; settings: from GI50s
Experimental: as §1, §2

[9] = system: HL-60; assay: NCI growth inhibition screen, leukemia panel; format: cell-based, human; set-up: key: = means equivalent activity; + means that it appears to be significantly better (i.e., by ˜2x); < means it appears to be less active than ET18OCH3 (˜2x); a combination like =/+ or </+ means that activity is dependent upon the isomer; a combination like =/+ or </+ means that activity is dependent upon the isomer; settings: HL-60, Leukemia; from GI50s
Experimental: as §1, §2

[10] = system: MOLT-4; assay: NCI growth inhibition screen, leukemia panel; format: cell-based, human; set-up: key: = means equivalent activity; + means that it appears to be significantly better (i.e., by ˜2x); < means it appears to be less active than ET18OCH3 (˜2x); a combination like =/+ or </+ means that activity is dependent upon the isomer; a combination like =/+ or </+ means that activity is dependent upon the isomer; settings: MOLT-4, Leukemia; from GI50s
Experimental: as §1, §2

| SMILES | H10 [1] | H50 [1] | Performance as compared to ET-18-O—CH3 [2] | activity compared to ET-18-OCH3 (in words) [2] | Performance as compared to ET-18-O—CH3 [3] | Performance as compared to ET-18-O—CH3 [4] | Performance as compared to ET-18-O—CH3 [5] | Performance as compared to ET-18-O—CH3 [6] | Performance as compared to ET-18-O—CH3 [7] | activity compared to ET-18-OCH3 (in words) [7] | Performance as compared to ET-18-O—CH3 [8] | Performance as compared to ET-18-O—CH3 [9] | Performance as compared to ET-18-O—CH3 [10] |
| --- | --- | --- | --- | --- | --- | --- | --- | --- | --- | --- | --- | --- | --- |
| CCCCCCCCCCCCCCCCCCOC[C@@H](COP(=O)([O-])OCC[N+](C)(C)C)OS(C)(=O)=O [1a′S] | 16.5 µM | 21.5 µM | 64 | more active | 256 | 0 | 1024 | 0 | 32 | significantly better than ET-18-OCH3 | 0 | 0 | 0 |
| CCCCCCCCCCCCCCCCCCOCC(COP(=O)([O-])OCC[N+](C)(C)C)OS(C)(=O)=O (centres unmarked) [Compound 1aR] | 16 µM and 13 µM | 21.5 µM and 17 µM | + | more active | + | = | + | = | + | significantly better than ET-18-OCH3 | = | = | = |
